PubChem BioAssay AID248 (DTP/NCI, 2004)
Inconclusive results and toxic doses are left out. No stated cut-off is given here; in the data, active means T/C of 150% or more; inactive means T/C below 125%.

Test system: L1210 leukemia ip in BDF1 mice, survival T/C
Assay: NCI In Vivo Anticancer Drug Screen. Data for tumor model L1210 Leukemia (intraperitoneal) in B6D2F1 (BDF1) mice
Details: endpoint: mean survival time, higher = longer survival
Summary of the method: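 Transplanted-tumor mice were given test agent; controls received vehicle only. Survival readings from the two groups were divided (treated over control).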

[1] = dose: 100.0 mg/kg/injection, schedule: Q01DX009 (ip), vehicle: saline with Tween-80
[2] = dose: 100.0 mg/kg/injection, schedule: Q04DX003 (ip), vehicle: saline with Tween-80
[3] = dose: 200.0 mg/kg/injection, schedule: Q01DX009 (ip), vehicle: saline with Tween-80
[4] = dose: 200.0 mg/kg/injection, schedule: Q04DX003 (ip), vehicle: saline with Tween-80
[5] = dose: 400.0 mg/kg/injection, schedule: Q04DX003 (ip), vehicle: saline with Tween-80
[6] = dose: 100.0 mg/kg/injection, schedule: Q04DX002 (ip), vehicle: Klucel (hydroxypropylcellulose) (HPC)
[7] = dose: 50.0 mg/kg/injection, schedule: Q01DX001 (ip), vehicle: carboxymethylcellulose (CMC)
[8] = dose: 100.0 mg/kg/injection, schedule: Q01DX001 (ip), vehicle: carboxymethylcellulose (CMC)
[9] = dose: 200.0 mg/kg/injection, schedule: Q01DX001 (ip), vehicle: carboxymethylcellulose (CMC)
[10] = dose: 400.0 mg/kg/injection, schedule: Q01DX001 (ip), vehicle: carboxymethylcellulose (CMC)
[11] = dose: 200.0 mg/kg/injection, schedule: Q04DX002 (ip), vehicle: Klucel (hydroxypropylcellulose) (HPC)
[12] = dose: 400.0 mg/kg/injection, schedule: Q04DX002 (ip), vehicle: Klucel (hydroxypropylcellulose) (HPC)

Measured: T/C

Cc1ccc(NC(=O)COc2ccc(Cl)cc2Cl)c(C)c1
inactive: [1] 104 % of control | [2] 89 % of control | [3] 101 % of control | [4] 91 % of control | dose: 400.0 mg/kg/injection, schedule: Q01DX009 (ip), vehicle: saline with Tween-80 96 % of control | [5] 91 % of control

CC(=O)Nc1ccc2c(c1)OCO2
inactive: [1] 101 % of control | [2] 107 % of control | [3] 102 % of control | [4] 108 % of control | [5] 103 % of control

C=CCC/C(=N\NC(N)=O)c1ccccc1
inactive: dose: 75.0 mg/kg/injection, schedule: Q01DX001 (ip), vehicle: acetone 99 % of control | dose: 150.0 mg/kg/injection, schedule: Q01DX001 (ip), vehicle: acetone 91 % of control | dose: 300.0 mg/kg/injection, schedule: Q01DX001 (ip), vehicle: acetone 110 % of control

O=C(Nc1ccc(C2=NCCCN2)cc1)c1ccc(C(=O)Nc2ccc(C3=NCCCN3)cc2)c(Cl)c1
inactive: dose: 0.04 mg/kg/injection, schedule: Q01DX015 (ip), vehicle: water 98 % of control | dose: 0.09 mg/kg/injection, schedule: Q01DX015 (ip), vehicle: water 101 % of control | dose: 0.18 mg/kg/injection, schedule: Q01DX015 (ip), vehicle: water 95 % of control | dose: 0.37 mg/kg/injection, schedule: Q01DX015 (ip), vehicle: water 101 % of control | dose: 0.75 mg/kg/injection, schedule: Q01DX015 (ip), vehicle: water 107 % of control

O=C(O)c1cccc2cccc(-c3c4ccc(=O)c(O)c-4oc4c(O)c(O)ccc34)c12
inactive: [2] 91 % of control | [4] 92 % of control | [5] 89 % of control

O=C(Nc1ccccc1)Nc1cc(Cl)ccc1Cl
inactive: dose: 25.0 mg/kg/injection, schedule: Q04DX002 (ip), vehicle: Klucel (hydroxypropylcellulose) (HPC) 107 % of control | dose: 50.0 mg/kg/injection, schedule: Q04DX002 (ip), vehicle: Klucel (hydroxypropylcellulose) (HPC) 90 % of control | [6] 90 % of control

CC(=O)Nc1ccc(C=Nc2c(N)n(C)c(=O)n(C)c2=O)cc1
inactive: [7] 94 % of control | [8] 96 % of control | [9] 94 % of control | [10] 90 % of control

Cc1cc(OCC(N)=O)ccc1Cl
inactive: [6] 103 % of control | [11] 92 % of control | [12] 98 % of control

CCc1cccc(CC)c1N=Cc1ccccc1
inactive: dose: 100.0 mg/kg/injection, schedule: Q01DX009 (ip), vehicle: Klucel (hydroxypropylcellulose) (HPC) 97 % of control | dose: 200.0 mg/kg/injection, schedule: Q01DX009 (ip), vehicle: Klucel (hydroxypropylcellulose) (HPC) 105 % of control | dose: 400.0 mg/kg/injection, schedule: Q01DX009 (ip), vehicle: Klucel (hydroxypropylcellulose) (HPC) 97 % of control

CC(Cl)(S(=O)c1ccccc1)C1(O)CCCCC1 (stereo unspecified)
inactive: dose: 100.0 mg/kg/injection, schedule: Q03DX002 (ip), vehicle: saline with Tween-80 113 % of control | dose: 200.0 mg/kg/injection, schedule: Q03DX002 (ip), vehicle: saline with Tween-80 102 % of control | dose: 400.0 mg/kg/injection, schedule: Q03DX002 (ip), vehicle: saline with Tween-80 105 % of control

O=P(OCc1ccccc1)(N(CCCl)CCCl)N1CCN(P(=O)(OCc2ccccc2)N(CCCl)CCCl)CC1 (stereo unspecified)
inactive: dose: 16.0 mg/kg/injection, schedule: Q01DX Z (ip), vehicle: saline 94 % of control | dose: 32.0 mg/kg/injection, schedule: Q01DX Z (ip), vehicle: saline 89 % of control | dose: 64.0 mg/kg/injection, schedule: Q01DX Z (ip), vehicle: saline 95 % of control | dose: 128.0 mg/kg/injection, schedule: Q01DX Z (ip), vehicle: saline 111 % of control

CC1(C)CC2C(=O)c3ccccc3NC2c2ccccc21 (stereo unspecified)
inactive: [7] 96 % of control | [8] 102 % of control | dose: 100.0 mg/kg/injection, schedule: Q04DX003 (ip), vehicle: acetone 91 % of control | [9] 98 % of control | dose: 200.0 mg/kg/injection, schedule: Q04DX003 (ip), vehicle: acetone 86 % of control | [10] 98 % of control | dose: 400.0 mg/kg/injection, schedule: Q04DX003 (ip), vehicle: acetone 93 % of control

CCCCCCCCCCCCSC1=NS(=O)(=O)c2ccccc21
inactive: dose: 100.0 mg/kg/injection, schedule: Q04DX003 (ip), vehicle: Klucel (hydroxypropylcellulose) (HPC) 106 % of control | dose: 200.0 mg/kg/injection, schedule: Q04DX003 (ip), vehicle: Klucel (hydroxypropylcellulose) (HPC) 94 % of control | dose: 400.0 mg/kg/injection, schedule: Q04DX003 (ip), vehicle: Klucel (hydroxypropylcellulose) (HPC) 90 % of control

CC/C=C(\C)CC(C)O (stereo unspecified)
inactive: dose: 200.0 mg/kg/injection, schedule: Q04DX002 (ip), vehicle: saline with Tween-80 90 % of control | dose: 400.0 mg/kg/injection, schedule: Q04DX002 (ip), vehicle: saline with Tween-80 90 % of control

CC(C)OC(=O)NN1CCCCCC1
inactive: [6] 92 % of control | [11] 105 % of control | [12] 96 % of control

OC1c2ccccc2-c2c(F)c(F)c(F)c(F)c21 (stereo unspecified)
inactive: [7] 96 % of control | [8] 97 % of control | [9] 94 % of control | [10] 111 % of control
